A short description of the data set: cn = amount concentration of the nth substance listed, in mol/dm3. The conditions noted are these: 303.15 K; 101 kPa; Liquid; 4510 conductivity meter; c1 = 0.001.

SMILES strings stand for the structures.

Consider `CC1=C(C(=O)O)N2C(=O)[C@@H](NC(=O)[C@H](N)c3ccc(O)cc3)[C@H]2SC1` [cefadroxil] + O, for which the electrical conductivity was found to be 0.0001 S/m.

The values are drawn from the NIST ThermoML archive (doi:10.1016/j.jct.2013.04.007).
